Results: patent US11891365B2, “3-alkyl-4-amido-bicyclic [4,5,0] hydroxamic acids as HDAC inhibitors” (Valo Health, Inc., priority 2015, dated 2024)

Target: T1, Full length human recombinant HDAC6 protein (Homo sapiens, UniProt Q9UBN7)
T1 sequence (Q9UBN7 1-1215): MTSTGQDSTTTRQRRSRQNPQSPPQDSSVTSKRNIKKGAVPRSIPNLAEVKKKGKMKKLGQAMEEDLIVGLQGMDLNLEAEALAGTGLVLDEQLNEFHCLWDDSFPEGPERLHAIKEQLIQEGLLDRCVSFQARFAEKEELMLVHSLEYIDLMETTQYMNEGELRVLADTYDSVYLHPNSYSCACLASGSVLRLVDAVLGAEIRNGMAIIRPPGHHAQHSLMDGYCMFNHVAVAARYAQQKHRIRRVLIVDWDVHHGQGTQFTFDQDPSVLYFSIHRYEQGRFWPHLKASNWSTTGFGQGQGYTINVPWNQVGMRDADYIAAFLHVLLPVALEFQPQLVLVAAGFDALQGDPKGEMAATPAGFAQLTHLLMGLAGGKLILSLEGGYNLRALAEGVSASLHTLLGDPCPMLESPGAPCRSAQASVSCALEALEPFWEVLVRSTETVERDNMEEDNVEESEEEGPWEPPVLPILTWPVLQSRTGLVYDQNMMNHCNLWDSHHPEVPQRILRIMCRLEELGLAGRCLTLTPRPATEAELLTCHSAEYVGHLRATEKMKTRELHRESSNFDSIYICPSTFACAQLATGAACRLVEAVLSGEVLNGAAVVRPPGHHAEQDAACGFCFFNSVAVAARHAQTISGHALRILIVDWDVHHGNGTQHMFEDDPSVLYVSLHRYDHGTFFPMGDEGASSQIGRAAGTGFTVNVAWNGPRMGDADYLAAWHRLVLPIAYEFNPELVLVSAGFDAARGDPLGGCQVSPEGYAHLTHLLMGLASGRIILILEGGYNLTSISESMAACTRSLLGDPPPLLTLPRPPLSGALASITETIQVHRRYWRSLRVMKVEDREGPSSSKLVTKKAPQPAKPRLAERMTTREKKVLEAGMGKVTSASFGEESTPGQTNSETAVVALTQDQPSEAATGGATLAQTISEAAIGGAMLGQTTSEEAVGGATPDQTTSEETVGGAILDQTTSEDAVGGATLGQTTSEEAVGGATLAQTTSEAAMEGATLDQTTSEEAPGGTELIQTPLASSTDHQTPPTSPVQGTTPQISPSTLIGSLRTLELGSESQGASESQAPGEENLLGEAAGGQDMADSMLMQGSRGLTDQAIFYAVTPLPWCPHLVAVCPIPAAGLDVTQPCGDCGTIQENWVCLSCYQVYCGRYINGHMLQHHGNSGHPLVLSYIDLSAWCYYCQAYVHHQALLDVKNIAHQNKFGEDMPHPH
Test: In vitro histone deacetylase assay: enzymatic HDAC6 electrophoretic mobility shift assay
Assay type: biochemical
Conditions: 1 nM enzyme, 2 μM peptide substrate RHKK(Ac)-NH2, 25° C., 12 concentrations; read-out: Inhibitory Concentration (IC50) Values against HDAC6, Activity Range
Protocol: The enzymatic HDAC6 assay was performed using electrophoretic mobility shift assay. […] The enzymatic reactions were assembled in 384 well plates in a total volume of 25 μL in a reaction buffer composing: 100 mM HEPES, pH7.5, 25 mM KCl, 0.1% bovine serum albumin, 0.01% Triton X-100, 1% DMSO (from compounds) 2 μM of the fluorescently labeled peptide substrate and enzyme. The enzyme was added at a final concentration of 1 nM. The peptide substrate RHKK(Ac)—NH2 was used. The compounds were tested at 12 concentrations spaced by 3× dilution intervals. Negative control samples ([…] in the absence of inhibitor) and positive control samples (100%-inhibition) were assembled in replicates of four in each assay plate. The reactions were incubated at 25° C. and quenched by the addition of 45 μL of termination buffer (100 mM HEPES, pH 7.5, 0.01% Triton X-100, 0.05% SDS).
The terminated assay plates were analyzed on LabChip® 3000 microfluidic electrophoresis instrument (Perkin Elmer/Caliper Life Sciences). The fluorescence intensity of the electrophoretically separated de-acetylated product and substrate peptide was measured. Activity in each sample was determined as the product to sum ratio (PSR): P/(S+P), where P is the peak height of the product peptide and S is the peak height of the substrate peptide. Percent inhibition (Pinh) is determined using the following equation:
Pinh=(PSR0%−PSRinh)/(PSR0%−PSR100%)*100, where PSRinh is the product sum ratio in the presence of inhibitor, PSR0% is the average product sum ration in the absence of inhibitor and PSR100% is the average product sum ratio in 100%-inhibition control samples. The IC50 values of inhibitors were determined by fitting the %-inhibition curves with 4 parameter dose-response model using XLfit 4 software.

| IC50 [nM] | Structure (SMILES) |
| --- | --- |
| 100 to 500 | O=C(NO)c1ccc2c(c1)OCCN(C(=O)c1ccc(OC(F)F)cc1)C2 [4-(4-(difluoromethoxy)benzoyl)-N-hydroxy-2,3,4,5-tetrahydrobenzo[f][1,4]oxazepine-8-carboxamide] |
| ≤ 100 | O=C(NO)c1ccc2c(c1)OCCN(C(=O)C1CC3CCC(C1)O3)C2 (stereo not shown) [4-(8-oxabicyclo[3.2.1]octane-3-carbonyl)-N-hydroxy-2,3,4,5-tetrahydrobenzo[f][1,4]oxazepine-8-carboxamide] |
| ≤ 100 | O=C(NO)c1ccc2c(c1)OCCN(C(=O)c1ccc3c(c1)OCO3)C2 [4-(benzo[d][1,3]dioxole-5-carbonyl)-N-hydroxy-2,3,4,5-tetrahydrobenzo[f][1,4]oxazepine-8-carboxamide] |
| 100 to 500 | O=C(NO)c1ccc2c(c1)OCCN(C(=O)c1ccc3occc3c1)C2 [4-(benzofuran-5-carbonyl)-N-hydroxy-2,3,4,5-tetrahydrobenzo[f][1,4]oxazepine-8-carboxamide] |
| ≤ 100 | O=C(NO)c1ccc2c(c1)OCCN(C(=O)C1Cc3ccccc31)C2 (stereo not shown) [4-(bicyclo[4.2.0]octa-1(6),2,4-triene-7-carbonyl)-N-hydroxy-2,3,4,5-tetrahydrobenzo[f][1,4]oxazepine-8-carboxamide] |
| ≤ 100 | O=C(NO)c1ccc2c(c1)OCCN(C(=O)C1CCC1)C2 [4-(cyclobutanecarbonyl)-N-hydroxy-2,3,4,5-tetrahydrobenzo[f][1,4]oxazepine-8-carboxamide] |
| ≤ 100 | O=C(NO)c1ccc2c(c1)OCCN(C(=O)C1CCCCC1)C2 [4-(cyclohexanecarbonyl)-N-hydroxy-2,3,4,5-tetrahydrobenzo[f][1,4]oxazepine-8-carboxamide] |
| 100 to 500 | O=C(NO)c1cnc2c(c1)OCCN(C(=O)C1CCCCC1)C2 [4-(cyclohexanecarbonyl)-N-hydroxy-2,3,4,5-tetrahydropyrido[2,3-f][1,4]oxazepine-8-carboxamide] |
| 100 to 500 | O=C(NO)c1ccc2c(n1)OCCN(C(=O)C1CCCCC1)C2 [4-(cyclohexanecarbonyl)-N-hydroxy-2,3,4,5-tetrahydropyrido[3,2-f][1,4]oxazepine-8-carboxamide] |
| > 500 | O=C1CN(C(=O)C2CCCCC2)Cc2cc(C(=O)NO)ccc2N1 [4-(cyclohexanecarbonyl)-N-hydroxy-2-oxo-2,3,4,5-tetrahydro-1H-benzo[e][1,4]diazepine-7-carboxamide] |
| ≤ 100 | O=C(NO)c1ccc2c(c1)OCCN(C(=O)C1CCCC1)C2 [4-(cyclopentanecarbonyl)-N-hydroxy-2,3,4,5-tetrahydrobenzo[f][1,4]oxazepine-8-carboxamide] |
| 100 to 500 | O=C(NO)c1ccc2c(c1)OCCN(C(=O)C1CC1)C2 [4-(cyclopropanecarbonyl)-N-hydroxy-2,3,4,5-tetrahydrobenzo[f][1,4]oxazepine-8-carboxamide] |
| ≤ 100 | CC(=O)N1CCOc2cc(C(=O)NO)ccc2C1 [4-acetyl-N-hydroxy-2,3,4,5-tetrahydrobenzo[f][1,4]oxazepine-8-carboxamide] |
| 100 to 500 | CC(=O)N1Cc2ccc(C(=O)NO)cc2OCC1(C)C [4-acetyl-N-hydroxy-3,3-dimethyl-2,3,4,5-tetrahydrobenzo[f][1,4]oxazepine-8-carboxamide] |
| ≤ 100 | O=C(NO)c1ccc2c(c1)OCCN(C(=O)c1ccccc1)C2 [4-benzoyl-N-hydroxy-2,3,4,5-tetrahydrobenzo[f][1,4]oxazepine-8-carboxamide] |
| ≤ 100 | O=CN1CCOc2cc(C(=O)NO)ccc2C1 [4-formyl-N-hydroxy-2,3,4,5-tetrahydrobenzo[f][1,4]oxazepine-8-carboxamide] |
| ≤ 100 | O=C(NO)c1cnc2c(n1)OCCN(C(=O)C1CCCCC1)C2 [8-(cyclohexanecarbonyl)-N-hydroxy-6,7,8,9-tetrahydropyrazino[2,3-f][1,4]oxazepine-3-carboxamide] |
| 100 to 500 | O=C(NO)c1ccc2c(c1)O[C@@H]1C[C@H]2N(C(=O)C2CCOCC2)C1 [(2R,5R)-N-hydroxy-4-(tetrahydro-2H-pyran-4-carbonyl)-2,3,4,5-tetrahydro-2,5-methanobenzo[f][1,4]oxazepine-8-carboxamide] |
| > 500 | O=C(NO)c1ccc2c(c1)O[C@H]1C[C@@H]2N(C(=O)C2CCOCC2)C1 [(2S,5S)-N-hydroxy-4-(tetrahydro-2H-pyran-4-carbonyl)-2,3,4,5-tetrahydro-2,5-methanobenzo[f][1,4]oxazepine-8-carboxamide] |
| ≤ 100 | C[C@H]1COc2cc(C(=O)NO)ccc2CN1C(=O)C1CCS(=O)(=O)C1 (stereo partly drawn) [(3S)-4-(1,1-dioxidotetrahydrothiophene-3-carbonyl)-N-hydroxy-3-methyl-2,3,4,5-tetrahydrobenzo[f][1,4]oxazepine-8-carboxamide] |
| ≤ 100 | CC(=O)N1CCC(C(=O)N2Cc3ccc(C(=O)NO)cc3OC[C@@H]2C)C1 (stereo partly drawn) [(3S)-4-(1-acetylpyrrolidine-3-carbonyl)-N-hydroxy-3-methyl-2,3,4,5-tetrahydrobenzo[f][1,4]oxazepine-8-carboxamide] |
| ≤ 100 | CC1CC(C(=O)N2Cc3ccc(C(=O)NO)cc3OC[C@@H]2C)CC(C)O1 (stereo partly drawn) [(3S)-4-(2,6-dimethyltetrahydro-2H-pyran-4-carbonyl)-N-hydroxy-3-methyl-2,3,4,5-tetrahydrobenzo[f][1,4]oxazepine-8-carboxamide] |
| ≤ 100 | C[C@H]1COc2cc(C(=O)NO)ccc2CN1C(=O)C1CCC(C)(C)O1 (stereo partly drawn) [(3S)-4-(5,5-dimethyltetrahydrofuran-2-carbonyl)-N-hydroxy-3-methyl-2,3,4,5-tetrahydrobenzo[f][1,4]oxazepine-8-carboxamide] |
| ≤ 100 | C[C@H]1COc2cc(C(=O)NO)ccc2CN1C(=O)C1CC2CCC(C1)O2 (stereo partly drawn) [(3S)-4-(8-oxabicyclo[3.2.1]octane-3-carbonyl)-N-hydroxy-3-methyl-2,3,4,5-tetrahydrobenzo[f][1,4]oxazepine-8-carboxamide] |
| ≤ 100 | C[C@H]1COc2cc(C(=O)NO)ccc2CN1C(=O)[C@@H]1CC2CCC1O2 (stereo partly drawn) [(3S)-4-((2R)-7-oxabicyclo[2.2.1]heptane-2-carbonyl)-N-hydroxy-3-methyl-2,3,4,5-tetrahydrobenzo[f][1,4]oxazepine-8-carboxamide] |
| ≤ 100 | C[C@H]1COc2cc(C(=O)NO)ccc2CN1C(=O)[C@H]1CC2CCC1O2 (stereo partly drawn) [(3S)-4-((2S)-7-oxabicyclo[2.2.1]heptane-2-carbonyl)-N-hydroxy-3-methyl-2,3,4,5-tetrahydrobenzo[f][1,4]oxazepine-8-carboxamide] |
| ≤ 100 | C[C@H]1COc2cc(C(=O)NO)ccc2CN1C(=O)CC1CCCO1 (stereo partly drawn) [(3S)-N-hydroxy-3-methyl-4-(2-(tetrahydrofuran-2-yl)acetyl)-2,3,4,5-tetrahydrobenzo[f][1,4]oxazepine-8-carboxamide] |
| ≤ 100 | C[C@H]1COc2cc(C(=O)NO)ccc2CN1C(=O)C1(C)CCCO1 (stereo partly drawn) [(3S)-N-hydroxy-3-methyl-4-(2-methyltetrahydrofuran-2-carbonyl)-2,3,4,5-tetrahydrobenzo[f][1,4]oxazepine-8-carboxamide] |
